# Data published in patent publication US12533349B2, “Drug formulations for reservoir-based delivery” (Medtronic, Inc., priority 2020, dated 2026).
# Key:
# Type in all cases: physicochemical
# [1] = Potential for chemical reaction between functional groups of drug and drug-contacting material; conditions: drug-contacting material silicone
# Excerpt: The presence of certain functional groups on the drug or components of the formulation and certain functional groups on drug formulation contacting materials of the reservoir-based delivery devices may result in concern for chemical reaction between one or more ingredients of the formulation and the drug formulation contacting materials.
# For example, silyl ether groups which may be present on silicone drug formulation contacting materials may react with amine groups, phosphate groups, or carboxylate groups of ingredients of the drug formulation.
# In the following, non-limiting example development of a bupivacaine formulation for use in a reservoir-based delivery device is shown. The drug delivery device for which compatibility was determined was Medtronic, Inc.'s SynchroMed® II implantable infusion device. The material of the component of the SynchroMed® II for which compatibility was tested was silicone. Bupivacaine may migrate into silicone without consideration of formulation.
# In addition, it was determined that bupivacaine has a high risk of potential for chemical reaction between functional groups in bupivacaine and the functional groups in the drug-contacting material.
# [2] = Hansen Solubility Parameters (HSP) determination; conditions: Hansen Solubility Parameter
# Excerpt: (§1) Without intending to be bound by theory, it is believed that HSP provides a thermodynamic indication of whether a compound will migrate into a component of the reservoir-based delivery device, such as a polymeric component of the reservoir-based delivery device. Greater differences between HSPs of the compound and the component tend to result in lower amounts of migration.
# For purposes of the present disclosure, differential HSP values of less than 7 are considered to be of high risk, HSP values between 7 and 10 are considered to be of medium risk, and HSP values of greater than 10 are considered to be of low risk for the drug to migrate into the component of the reservoir-based delivery device. Differential HSP values may be determined as described in Kitak, et al. (2015), “Determination of Solubility Parameters of Ibuprofen and Ibuprofen Lysinate,” Molecules, 20:21549-21568. One useful measurement of differential HSP values is described in Equation (4) of Kitak, et al. on page 21550. Other useful measurements include Equations (5), (6), and (7) of Kitak, et al. on pages 21550-21551.
# The HSP of bupivacaine and the drug contacting material (silicone) were determined.
# [3] = Differential HSP between drug and drug-contacting material of SynchroMed II infusion device; conditions: bupivacaine vs drug-contacting material (silicone); less than 7 is considered high risk of migration
# Excerpt: as §1
# For purposes of the present disclosure, differential HSP values of less than 7 are considered to be of high risk, HSP values between 7 and 10 are considered to be of medium risk, and HSP values of greater than 10 are considered to be of low risk for the drug to migrate into the component of the reservoir-based delivery device. Differential HSP values may be determined as described in Kitak, et al. (2015), “Determination of Solubility Parameters of Ibuprofen and Ibuprofen Lysinate,” Molecules, 20:21549-21568. […]
# In the following, non-limiting example development of a bupivacaine formulation for use in a reservoir-based delivery device is shown. The drug delivery device for which compatibility was determined was Medtronic, Inc.'s SynchroMed® II implantable infusion device. […]
# The differential HSP value was determined to be 4.2, which is considered to be high risk of the drug migrating into the drug-contacting material.
smiles,measurement,setting,value
CCCCN1CCCCC1C(=O)Nc1c(C)cccc1C (centres unmarked) [bupivacaine],risk of potential for chemical reaction between functional groups in bupivacaine and in the drug-contacting material,[1],high risk
same,HSP δD,[2]; δD component,18.1
same,HSP δH,[2]; δH component,6.03
same,HSP δP,[2]; δP component,6.46
same,differential HSP value,[3],4.2
